The assay concerns the target T1, sodium-proton exchanger of subtype 3 (NHE3) (Homo sapiens, UniProt P48764).
T1 construct: expressed in transfected cells
T1 sequence (P48764 26-834): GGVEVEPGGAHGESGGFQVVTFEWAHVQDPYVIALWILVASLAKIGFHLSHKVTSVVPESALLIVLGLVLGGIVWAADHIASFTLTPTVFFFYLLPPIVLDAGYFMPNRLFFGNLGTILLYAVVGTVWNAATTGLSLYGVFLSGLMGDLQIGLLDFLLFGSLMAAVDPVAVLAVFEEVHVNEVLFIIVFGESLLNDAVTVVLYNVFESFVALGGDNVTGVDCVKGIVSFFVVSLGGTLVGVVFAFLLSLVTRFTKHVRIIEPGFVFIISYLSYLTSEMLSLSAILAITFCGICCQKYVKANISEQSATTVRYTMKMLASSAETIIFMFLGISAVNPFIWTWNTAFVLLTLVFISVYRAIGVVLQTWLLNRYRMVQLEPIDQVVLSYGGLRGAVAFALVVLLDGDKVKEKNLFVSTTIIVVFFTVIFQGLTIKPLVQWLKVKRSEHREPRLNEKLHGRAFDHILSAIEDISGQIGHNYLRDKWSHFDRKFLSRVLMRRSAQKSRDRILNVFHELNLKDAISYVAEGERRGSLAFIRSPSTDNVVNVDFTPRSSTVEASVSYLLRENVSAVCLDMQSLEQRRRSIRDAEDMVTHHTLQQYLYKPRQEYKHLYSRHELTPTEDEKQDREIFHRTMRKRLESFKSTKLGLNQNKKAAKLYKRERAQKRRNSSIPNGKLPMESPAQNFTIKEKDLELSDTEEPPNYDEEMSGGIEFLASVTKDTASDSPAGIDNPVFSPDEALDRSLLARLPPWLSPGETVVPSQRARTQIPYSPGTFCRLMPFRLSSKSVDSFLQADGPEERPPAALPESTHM
Description: Recovery of intracellular pH (pHi) after acidification in LAP1 cells stably expressing NHE3 (BCECF fluorescence, FLIPR). As to conditions: LAP1 cells stably expressing NHE3; pH recovery after acidification; range 1 is % inhibition at 10 μM; read-out: Activity range (inhibitory effect on NHE3). The format is cell-based.

With `COC(=O)c1ccc(O[C@H]2c3cc(Cl)ccc3C[C@@H]2N2CC[C@@H](O)C2)c(Cl)c1` [Example 446, 3-chloro-4-[trans-(1S,2S)-6-chloro-2-((R)-3-hydroxypyrrolidin-1-yl)indan-1-yloxy]benzoic acid methyl ester], the inhibition at 10 µM lay within 20 to 50%.
`Cn1ccn(-c2ccc(F)c(O[C@H]3c4cc(Cl)cc(Cl)c4C[C@@H]3N3CC[C@@H](O)C3)c2)c1=O` [Example 313, 1-{3-[(1S,2S)-4,6-dichloro-2-((R)-3-hydroxypyrrolidin-1-yl)indan-1-yloxy]-4-fluorophenyl}-3-methyl-1,3-dihydroimidazol-2-one]: the IC50 was less than 1 µM.
Regarding `CS(=O)(=O)c1ccc(CO[C@H]2c3cc(Cl)cc(Cl)c3C[C@@H]2N2CC[C@@H](O)C2)c(Cl)c1` [Example 24, (R)-1-[(1S,2S)-4,6-dichloro-1-(2-chloro-4-methanesulfonylbenzyloxy)indan-2-yl]pyrrolidin-3-ol], the inhibition at 10 µM fell in the range of 20 to 50%.
Take `CN1CCCN([C@H]2Cc3c(Cl)cc(Cl)cc3[C@@H]2Oc2ccc(S(C)(=O)=O)cc2)CC1` [Example 305, 1-[trans-(1S,2S)-4,6-dichloro-1-(4-methanesulfonylphenoxy)indan-2-yl]-4-methyl-[1,4]diazepane]: the IC50 is less than 1 µM.
As to `CS(=O)(=O)c1ccc(O[C@H]2c3cc(Cl)cc(Cl)c3C[C@@H]2N2CCCN(CCO)CC2)cc1` (racemic) [Example 383, 2-{4-[rac-trans-(1,2)-4,6-dichloro-1-(4-methanesulfonylphenoxy)indan-2-yl]-[1,4]diazepan-1-yl}-ethanol], the IC50 was less than 1 µM.
As to `N[C@H]1CCCN([C@H]2CCc3ccccc3[C@@H]2Oc2ccc3cc[nH]c3c2)C1` (racemic) [Example 148, (S)-1-[rac-trans-(1,2)-1-(1H-indol-6-yloxy)-1,2,3,4-tetrahydronaphthalen-2-yl]piperidin-3-ylamine], the inhibition at 10 µM was 20 to 50%.
In the case of `CS(=O)(=O)c1ccc(O[C@H]2c3cc(Cl)cc(Cl)c3C[C@@H]2N2CC[C@H](F)C2)cc1` [Example 196, (S)-1-[trans-(1S,2S)-4,6-dichloro-1-(4-methanesulfonylphenoxy)indan-2-yl]-3-fluoropyrrolidine], the IC50 was less than 1 µM.
For `Cc1cc(C)n(-c2ccc(O[C@H]3c4cc(Cl)cc(Cl)c4C[C@@H]3N3CC[C@@H](O)C3)c(F)c2)n1` [Example 136, (R)-1-{trans-(1S,2S)-4,6-dichloro-1-[4-(3,5-dimethylpyrazol-1-yl)-2-fluorophenoxy]indan-2-yl}pyrrolidin-3-ol], the inhibition at 10 µM lay within 20 to 50%.
`NC(=O)Nc1cccc(O[C@@H]2c3ccccc3C[C@H]2N2CCC[C@H](N)C2)c1` (racemic) [Example 232, {3-[rac-trans-(1,2)-2-((S)-3-aminopiperidin-1-yl)indan-1-yloxy]phenyl}urea]: the IC50 is 1 to 10 µM.
Consider `Cc1nc(C(C)(C)C)cn1-c1ccc(O[C@H]2c3cc(Cl)cc(Cl)c3C[C@@H]2N2CC[C@@H](O)C2)c(F)c1` [Example 729, (R)-1-{trans-(1S,2S)-1-[4-(4-tert-Butyl-2-methyl-imidazol-1-yl)-2-fluoro-phenoxy]-4,6-dichloro-indan-2-yl}-pyrrolidin-3-ol], for which the IC50 lay in the range of 1 to 10 µM.
As to `NC(=O)c1cc(Cl)ccc1O[C@H]1c2cc(Cl)cc(Cl)c2C[C@@H]1N1CCC1` [Example 353, 2-((1S,2S)-2-azetidin-1-yl-4,6-dichloroindan-1-yloxy)-5-chlorobenzamide], the inhibition at 10 µM was in the range of 20 to 50%.
For `CS(=O)(=O)c1ccc(O[C@H]2c3cc(Cl)cc(Cl)c3C[C@@H]2N2CC[C@@H](N)C2)cc1` [Example 104, (R)-1-[trans-(1S,2S)-4,6-dichloro-1-(4-methanesulfonylphenoxy)indan-2-yl]pyrrolidin-3-ylamine], the IC50 is less than 1 µM.
On the same count and under the same terms, the figure for `Fc1ccc(O[C@@H]2c3ccccc3C[C@H]2N2C[C@H]3CNC[C@H]3C2)c(F)c1` (racemic) [Example 9, 2-[rac-trans-(1,2)-1-(2,4-difluorophenoxy)indan-2-yl]octahydropyrrolo[3,4-c]pyrrole] is 1 to 10 µM; for `CC(=O)Nc1cccc(O[C@H]2c3cc(Cl)cc(Cl)c3C[C@@H]2N2CC3CNCC3C2)c1` (mixture of isomers) [Example 689, N-{3-[rac-trans-(1,2)-4,6-dichloro-2-(hexahydropyrrolo[3,4-c]pyrrol-2-yl)indan-1-yloxy]phenyl}acetamide] it is less than 1 µM.
Still for that read-out and setting: to `CN1CCC2CN([C@H]3Cc4c(Cl)cc(Cl)cc4[C@@H]3Oc3ccc(S(C)(=O)=O)cc3)CC21` (single isomer, unassigned) [Example 581] belongs less than 1 µM; to `NS(=O)(=O)c1ccc(OC2c3ccccc3CC2N2CCCC2)c(Cl)c1Cl` (racemic) [Example 357, 2,3-dichloro-4-(rac-trans-(1,2)-2-pyrrolidin-1-ylindan-1-yloxy)benzenesulfonamide], less than 1 µM; to `N[C@@H]1CCCN([C@@H]2Cc3ccccc3[C@H]2Oc2ccc(-n3ccnc3)cc2)C1` (racemic) [Example 72, (R)-1-[rac-trans-(1,2)-1-(4-imidazol-1-ylphenoxy)indan-2-yl]piperidin-3-ylamine], less than 1 µM.
The same measure, in the same setting: the figure for `N[C@@H]1CCCN([C@H]2CCc3ccccc3[C@@H]2Oc2cccc3ncccc23)C1` (racemic) [Example 89, (R)-1-[rac-trans-(1,2)-1-(quinolin-5-yloxy)-1,2,3,4-tetrahydronaphthalen-2-yl]piperidin-3-ylamine] is 1 to 10 µM; for `O=C1CCCN1c1ccc(O[C@H]2c3cc(Cl)cc(Cl)c3C[C@@H]2N2CC[C@@H](O)C2)c(Cl)c1` [Example 321, 1-{3-chloro-4-[(1S,2S)-4,6-dichloro-2-((R)-3-hydroxypyrrolidin-1-yl)indan-1-yloxy]phenyl}pyrrolidin-2-one] it is less than 1 µM.
Regarding `NS(=O)(=O)c1ccc(O[C@H]2c3ccccc3C[C@@H]2CN2CCCCC2)c(F)c1` (racemic) [Example 450, 3-fluoro-4-(2-piperidin-1-ylmethylindan-1-yloxy)benzenesulfonamide], the inhibition at 10 µM was 20 to 50%.
With `CS(=O)(=O)c1cc(Cl)c(O[C@H]2c3ccccc3C[C@@H]2N2CCCC2)c(Cl)c1` (racemic) [Example 264, 1-[rac-trans-(1,2)-1-(2,6-dichloro-4-methanesulfonylphenoxy)indan-2-yl]pyrrolidine], the IC50 is 1 to 10 µM.
For `CN1CCN([C@H]2Cc3c(Cl)cc(Cl)cc3[C@@H]2Oc2ccc(-n3ccnc3)cc2)CC1` [Example 297, 1-[trans-(1S,2S)-4,6-dichloro-1-(4-imidazol-1-ylphenoxy)indan-2-yl]-4-methylpiperazine], the inhibition at 10 µM fell in the range of 20 to 50%.
Regarding `CN1CCN(c2cccc(O[C@H]3c4cc(Cl)cc(Cl)c4C[C@@H]3N3CC[C@@H](O)C3)c2)C1=O` [Example 319, 1-{3-[trans-(1S,2S)-4,6-dichloro-2-((R)-3-hydroxypyrrolidin-1-yl)indan-1-yloxy]phenyl}-3-methylimidazolidin-2-one], the IC50 was 1 to 10 µM.
Still for that read-out and setting: to `O=c1[nH]ccn1-c1ccc(O[C@H]2c3cc(Cl)cc(Cl)c3C[C@@H]2N2CC[C@@H](O)C2)cc1` [Example 325, 1-{4-[(1S,2S)-4,6-dichloro-2-((R)-3-hydroxypyrrolidin-1-yl)indan-1-yloxy]phenyl}-1,3-dihydroimidazol-2-one] belongs less than 1 µM; to `Clc1ccc(O[C@@H]2c3ccccc3C[C@H]2N2C[C@H]3CNC[C@H]3C2)cn1` (racemic) [Example 18, 2-[rac-trans-(1,2)-1-(6-chloropyridin-3-yloxy)indan-2-yl]octahydropyrrolo[3,4-c]pyrrole], 1 to 10 µM.
Same read-out and setting: to `CN(C1CCCC1)[C@@H]1Cc2ccccc2[C@H]1Oc1ccc(S(C)(=O)=O)cc1` (racemic) [Example 730, Cyclopentyl-[rac-trans-(1,2)-1-(4-methanesulfonyl-phenoxy)-indan-2-yl]-methyl-amine] belongs 1 to 10 µM.
`Cc1c(Cl)cccc1O[C@H]1c2ccccc2CC[C@@H]1N1CCC[C@H](N)C1` (racemic) [Example 160, (S)-1-[rac-trans-(1,2)-1-(3-chloro-2-methylphenoxy)-1,2,3,4-tetrahydronaphthalen-2-yl]piperidin-3-ylamine]: the inhibition at 10 µM was 20 to 50%.
On the same count and under the same terms, the figure for `N[C@H]1CCCN([C@H]2CCc3ccccc3[C@@H]2Oc2cc(F)cc(Cl)c2)C1` (racemic) [Example 162, (S)-1-[rac-trans-(1,2)-1-(3-chloro-5-fluorophenoxy)-1,2,3,4-tetrahydronaphthalen-2-yl]piperidin-3-ylamine] is 20 to 50%; for `N[C@@H]1CCCN([C@H]2CCc3ccccc3[C@@H]2Oc2ccc(C(F)(F)F)cc2)C1` (racemic) [Example 77, (R)-1-[rac-trans-(1,2)-1-(4-trifluoromethylphenoxy)-1,2,3,4-tetrahydronaphthalen-2-yl]piperidin-3-ylamine] it is 20 to 50%.
